Source: patent US10077265B2, “Substituted oxopyridine derivatives” (BAYER PHARMA AKTIENGESELLSCHAFT, priority 2014, dated 2018)

Biological target: human plasma kallikrein (Homo sapiens (Human), UniProt P03952)
Assay: Determination of the plasma kallikrein activity (fluorogenic peptide substrate)
Type: biochemical
Settings: plasma kallikrein from Kordia, substrate H-Pro-Phe-Arg-AMC, 30 min at 22° C.
Description: To determine the plasma kallikrein inhibition of the substances according to the invention, a biochemical test system is used which utilizes the reaction of a peptidic plasma kallikrein substrate to determine the enzymatic activity of human plasma kallikrein. Here, plasma kallikrein cleaves from the peptic plasma kallikrein substrate the C-terminal aminomethylcoumarin (AMC), the fluorescence of which is measured. The determinations are carried out in microtitre plates.
1 μl of the diluted substance solutions is placed into each of the wells of white microtitre plates from Greiner (384 wells). 20 μl of assay buffer (50 mM Tris/HCl pH 7.4; 100 mM sodium chloride solution; 5 mM of calcium chloride solution; 0.1% of bovine serum albumin) and 20 μl of plasma kallikrein from Kordia (0.6 nM in assay buffer) are then added successively. After 15 min of incubation, the enzyme reaction is started by addition of 20 μl of the substrate H-Pro-Phe-Arg-AMC dissolved in assay buffer (10 μM in assay buffer) from Bachem, the mixture is incubated at room temperature (22° C.) for 30 min and fluorescence is then measured (excitation: 360 nm, emission: 460 nm). The measured emissions of the test batches with test substance are compared to those of control batches without test substance (only dimethyl sulphoxide instead of test substance in dimethyl sulphoxide), and IC50 values are calculated from the concentration/activity relationships.

Sequence of human plasma kallikrein (P03952 391-638): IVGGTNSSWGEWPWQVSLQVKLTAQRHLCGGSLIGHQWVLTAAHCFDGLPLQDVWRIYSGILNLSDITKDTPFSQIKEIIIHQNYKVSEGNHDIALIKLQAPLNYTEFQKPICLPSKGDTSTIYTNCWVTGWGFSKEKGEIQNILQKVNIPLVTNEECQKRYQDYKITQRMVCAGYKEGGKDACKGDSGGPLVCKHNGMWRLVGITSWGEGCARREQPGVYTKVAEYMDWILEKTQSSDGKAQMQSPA
Sequence of human plasma kallikrein (P03952 20-390 partner): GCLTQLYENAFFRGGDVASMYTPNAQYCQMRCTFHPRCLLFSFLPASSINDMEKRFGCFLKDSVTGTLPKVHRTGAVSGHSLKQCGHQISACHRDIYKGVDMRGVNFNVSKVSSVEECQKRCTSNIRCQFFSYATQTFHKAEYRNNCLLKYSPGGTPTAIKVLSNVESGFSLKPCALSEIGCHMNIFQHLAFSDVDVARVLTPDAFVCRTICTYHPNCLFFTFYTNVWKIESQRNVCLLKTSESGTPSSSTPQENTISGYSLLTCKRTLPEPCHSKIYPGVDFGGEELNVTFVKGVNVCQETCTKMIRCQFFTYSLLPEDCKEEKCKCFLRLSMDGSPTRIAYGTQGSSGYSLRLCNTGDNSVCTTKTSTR

Row | IC50 | Compound
1 | 5 nM | CCC(C(=O)Nc1ccn2ncc(C(=O)O)c2c1)n1cc(OC)c(-c2cc(Cl)ccc2C#N)cc1=O (racemic) [Example 1, 5-({2-[4-(5-Chloro-2-cyanophenyl)-5-methoxy-2-oxopyridin-1(2H)-yl]butanoyl}amino)pyrazolo-[1,5-a]pyridine-3-carboxylic acid (racemate)]
2 | 2.5 nM | COCCC(C(=O)Nc1ccn2ncc(C(=O)O)c2c1)n1cc(OC)c(-c2cc(Cl)ccc2C#N)cc1=O (racemic) [Example 2, 5-({2-[4-(5-Chloro-2-cyanophenyl)-5-methoxy-2-oxopyridin-1(2H)-yl]-4-methoxybutanoyl}-amino)pyrazolo[1,5-a]pyridine-3-carboxylic acid (racemate)]
3 | 18 nM | COCCC(C(=O)Nc1ccn2ncc(C(=O)N(C)C)c2c1)n1cc(OC)c(-c2cc(Cl)ccc2C#N)cc1=O (racemic) [Example 6, 5-({2-[4-(5-Chloro-2-cyanophenyl)-5-methoxy-2-oxopyridin-1(2H)-yl]-4-methoxybutanoyl}amino)-N,N-dimethylpyrazolo[1,5-a]pyridine-3-carboxamide (racemate)]
4 | 6.4 nM | CCCNC(=O)c1cnn2ccc(NC(=O)C(CCOC)n3cc(OC)c(-c4cc(Cl)ccc4C#N)cc3=O)cc12 (racemic) [Example 7, 5-({2-[4-(5-Chloro-2-cyanophenyl)-5-methoxy-2-oxopyridin-1(2H)-yl]-4-methoxybutanoyl}amino)-N-propylpyrazolo[1,5-a]pyridine-3-carboxamide (racemate)]
5 | 3.8 nM | COCCNC(=O)c1cnn2ccc(NC(=O)C(CCOC)n3cc(OC)c(-c4cc(Cl)ccc4C#N)cc3=O)cc12 (racemic) [Example 8, 5-({2-[4-(5-Chloro-2-cyanophenyl)-5-methoxy-2-oxopyridin-1(2H)-yl]-4-methoxybutanoyl}amino)-N-(2-methoxyethyl)pyrazolo[1,5-a]pyridine-3-carboxamide (racemate)]
6 | 3 nM | COCCCNC(=O)c1cnn2ccc(NC(=O)C(CCOC)n3cc(OC)c(-c4cc(Cl)ccc4C#N)cc3=O)cc12 (racemic) [Example 9, 5-({2-[4-(5-Chloro-2-cyanophenyl)-5-methoxy-2-oxopyridin-1(2H)-yl]-4-methoxybutanoyl}amino)-N-(3-methoxypropyl)pyrazolo[1,5-a]pyridine-3-carboxamide (racemate)]
7 | 9.5 nM | COCCC(C(=O)Nc1ccn2ncc(C(=O)NCCOC(F)(F)F)c2c1)n1cc(OC)c(-c2cc(Cl)ccc2C#N)cc1=O (racemic) [Example 10, 5-({2-[4-(5-Chloro-2-cyanophenyl)-5-methoxy-2-oxopyridin-1(2H)-yl]-4-methoxybutanoyl}amino)-N-[2-(trifluoromethoxy)ethyl]pyrazolo[1,5-a]pyridine-3-carboxamide (racemate)]
8 | 6.6 nM | COCCC(C(=O)Nc1ccn2ncc(C(=O)NCCC(F)(F)F)c2c1)n1cc(OC)c(-c2cc(Cl)ccc2C#N)cc1=O (racemic) [Example 11, 5-({2-[4-(5-Chloro-2-cyanophenyl)-5-methoxy-2-oxopyridin-1(2H)-yl]-4-methoxybutanoyl}amino)-N-(3,3,3-trifluoropropyl)pyrazolo[1,5-a]pyridine-3-carboxamide (racemate)]
9 | 5 nM | COCCC(C(=O)Nc1ccn2ncc(C(=O)NCC(F)(F)F)c2c1)n1cc(OC)c(-c2cc(Cl)ccc2C#N)cc1=O (racemic) [Example 12, 5-({2-[4-(5-Chloro-2-cyanophenyl)-5-methoxy-2-oxopyridin-1(2H)-yl]-4-methoxybutanoyl}amino)-N-(2,2,2-trifluoroethyl)pyrazolo[1,5-a]pyridine-3-carboxamide (racemate)]
10 | 5.2 nM | COCCC(C(=O)Nc1ccn2ncc(C(=O)NCCCO)c2c1)n1cc(OC)c(-c2cc(Cl)ccc2C#N)cc1=O (racemic) [Example 13, 5-({2-[4-(5-Chloro-2-cyanophenyl)-5-methoxy-2-oxopyridin-1(2H)-yl]-4-methoxybutanoyl}amino)-N-(3-hydroxypropyl)pyrazolo[1,5-a]pyridine-3-carboxamide (racemate)]
11 | 3.8 nM | COCCC(C(=O)Nc1ccn2ncc(C(=O)NCCO)c2c1)n1cc(OC)c(-c2cc(Cl)ccc2C#N)cc1=O (racemic) [Example 14, 5-({2-[4-(5-Chloro-2-cyanophenyl)-5-methoxy-2-oxopyridin-1(2H)-yl]-4-methoxybutanoyl}amino)-N-(2-hydroxyethyl)pyrazolo[1,5-a]pyridine-3-carboxamide (racemate)]
